The data set is described as follows: Solubility test (Chinese Pharmacopoeia 2010). The format is physicochemical. The conditions noted are these: 0.1M HCl, 25±2° C., 300 mg ground powder sample, shaken 30 seconds at 5 minute intervals, 30 minutes total, dissolution judged by eye; for Solubility: hydrochloride. How it is done:
According to the solubility test described in “Chinese Pharmacopoeia 2010”, Topic and Requirement 15, the grinded sample in powder form was added to a certain amount of solvent at 25±2° C. […] The solid was deemed as dissolved when no solid was detected in the mixture by human eyes.

SMILES strings stand for the structures.

Regarding `CC(=O)Oc1cc2c(s1)CCN(C(C(=O)C1CC1)c1ccccc1F)C2.Cl` (stereo not shown) [Form H2, prasugrel hydrochloride], the Solubility came out at 50 mg/mL.

`CC(=O)Oc1cc2c(s1)CCN(C(C(=O)C1CC1)c1ccccc1F)C2.Cl` (stereo not shown) [Form B2, prasugrel hydrochloride]: the solubility at 30 min (25 °C, simulated gastric fluid, thermodynamic from solid) was 40 mg/mL.

`CC(=O)Oc1cc2c(s1)CCN(C(C(=O)C1CC1)c1ccccc1F)C2.Cl` (stereo not shown) [Form H1, prasugrel hydrochloride] registered a Solubility of 50 mg/mL.

As for `CC(=O)Oc1cc2c(s1)CCN(C(C(=O)C1CC1)c1ccccc1F)C2.Cl` (stereo not shown) [Form H3, prasugrel hydrochloride], the Solubility amounted to 50 mg/mL.

One may read the Solubility as how much of the substance goes into solution per volume. Lower therefore signals little dissolved substance. For orientation: solubility means the concentration that dissolves in the medium under given conditions. A low value points to little dissolved substance.

Values taken from patent publication US8937053B2, “Process for the preparation of prasugrel and several novel crystalline forms of prasugrel hydrochloride” (Sunshine Lake Pharma Co., Ltd., priority 2011, dated 2015).
